Measured values from the supplement of paper PMC10307832.

Assays:
Assay in all cases: relative viability (nuclei count vs DMSO), 5 days (fraction); higher = more cells survive
AT-7519 + Trametinib = compound: O=C(NC1CCNCC1)c1n[nH]cc1NC(=O)c1c(Cl)cccc1Cl [AT-7519] + CC(=O)Nc1cccc(-n2c(=O)n(C3CC3)c(=O)c3c(Nc4ccc(I)cc4F)n(C)c(=O)c(C)c32)c1 [Trametinib] (partner 0.02 µM)
Method in brief: (§1)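 Lung cancer cell lines were seeded in 1536-well plates and dosed by pin tool the next day, with either a single drug or a fixed anchor-drug dose combined with five library-drug doses (not always all listed) spaced in √10 steps. Five days later, one step fixed the cells and stained their nuclei (final 0.05% Triton X-100, 1% formaldehyde, 1 ug/ml Hoechst), and nuclei were counted on 4× images. Relative viability is the nuclei count in treated wells divided by the count in vehicle wells, and each value is the median of duplicate plates.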

AT-7519 + Vorinostat = compound: O=C(NC1CCNCC1)c1n[nH]cc1NC(=O)c1c(Cl)cccc1Cl [AT-7519] + O=C(CCCCCCC(=O)Nc1ccccc1)NO [Vorinostat] (partner 1 µM)
Method in brief: as §1

[1] = compound: C1=CC2=C(C=C(C(=C2N=C1)O)N=NC3=CC4=C(C=C3)C=C(C=C4)S(=O)(=O)O)S(=O)(=O)O + N=C(N)NC(=N)NCCc1ccccc1 [Phenformin] (partner 250 µM)
Method in brief: as §1

AT-7519 + Pictilisib = compound: O=C(NC1CCNCC1)c1n[nH]cc1NC(=O)c1c(Cl)cccc1Cl [AT-7519] + CS(=O)(=O)N1CCN(Cc2cc3nc(-c4cccc5[nH]ncc45)nc(N4CCOCC4)c3s2)CC1 [Pictilisib] (partner 1 µM)
Method in brief: as §1

Cell Line	relative viability (AT-7519 + Trametinib; first compound 0.01 µM)	relative viability (AT-7519 + Trametinib; first compound 0.03162 µM)	relative viability (AT-7519 + Trametinib; first compound 0.3162 µM)	relative viability (AT-7519 + Trametinib; first compound 1 µM)	relative viability (AT-7519 + Vorinostat; first compound 0.01 µM)	relative viability (AT-7519 + Vorinostat; first compound 0.03162 µM)	relative viability (AT-7519 + Vorinostat; first compound 0.3162 µM)	relative viability (AT-7519 + Vorinostat; first compound 1 µM)	relative viability ([1]; first compound 0.08 µM)	relative viability ([1]; first compound 0.253 µM)	relative viability ([1]; first compound 0.8 µM)	relative viability ([1]; first compound 2.53 µM)	relative viability ([1]; first compound 8 µM)	relative viability (AT-7519 + Pictilisib; first compound 0.01 µM)	relative viability (AT-7519 + Pictilisib; first compound 0.03162 µM)	relative viability (AT-7519 + Pictilisib; first compound 0.3162 µM)	relative viability (AT-7519 + Pictilisib; first compound 1 µM)
LXF-289	0.7	0.638	0.657	0.493	0.815	0.884	0.771	0.773	0.54	0.511	0.509	0.485	0.507	0.819	0.838	0.787	0.746
NCI-H23	0.338	0.355	0.33	0.164	0.598	0.619	0.513	0.4	0.869	0.805	0.694	0.786	0.83	0.534	0.438	0.428	0.123
NCI-H322M	0.531	0.444	0.539	0.525	0.846	0.982	0.731	0.83	0.877	0.744	0.727	0.705	0.809	0.565	0.495	0.473	0.439
NCI-H358	0.127	0.13	0.253	0.0967	0.646	0.604	0.5	0.108	0.35	0.35	0.339	0.345	0.327	0.294	0.308	0.239	0.212
NCI-H441	0.429	0.474	0.32	0.23	0.838	0.834	0.796	0.693	0.918	0.761	0.731	0.947	0.821	0.448	0.452	0.468	0.161
NCI-H460	0.193	0.155	0.129	0.0266	0.569	0.619	0.674	0.0847	0.609	0.479	0.502	0.486	0.596	0.346	0.446	0.37	0.286
NCI-H520	0.741	0.494	0.673	0.229	0.712	0.793	0.659	0.429	0.493	0.496	0.585	0.321	0.727	0.344	0.296	0.249	0.171
NCI-H596	0.86	0.811	0.662	0.662	0.584	0.611	0.471	0.697	0.749	0.735	0.697	0.841	0.759	0.389	0.433	0.414	0.347
NCI-H647	0.439	0.342	0.475	0.159	0.568	0.369	0.562	0.244	0.668	0.486	0.449	0.534	0.525	0.452	0.531	0.483	0.356
NCI-H650	1.02	0.924	1.04	0.348	0.504	0.459	0.46	0.599	0.413	0.42	0.437	0.49	0.309	0.868	0.851	0.84	0.672
NCI-H661	0.549	0.565	0.508	0.203	0.792	0.829	0.867	0.261	0.286	0.291	0.269	0.279	0.312	0.398	0.386	0.399	0.289
NCI-H727	0.34	0.414	0.37	0.384	1.17	1.08	1.11	0.794	0.564	0.474	0.502	0.627	0.572	0.354	0.263	0.197	0.204
NCI-H838	0.475	0.443	0.529	0.0788	0.758	0.653	0.62	0.153	0.497	0.558	0.557	0.483	0.551	0.567	0.427	0.145	0.103
NCI-H1355	0.482	0.416	0.48	0.298	0.65	0.624	0.661	0.598	0.484	0.432	0.44	0.481	0.434	0.462	0.388	0.475	0.35
NCI-H1395	1.16	1.04	0.799	0.499	0.82	0.655	0.57	0.565	0.442	0.405	0.473	0.45	0.452	0.662	0.523	0.51	0.471
NCI-H1437	0.532	0.503	0.507	0.214	0.815	0.842	0.929	0.353	0.257	0.242	0.251	0.303	0.317	0.471	0.392	0.29	0.133
NCI-H1650	0.634	0.538	0.449	0.223	0.534	0.681	0.489	0.23	0.427	0.444	0.42	0.418	0.322	0.701	0.548	0.295	0.177
NCI-H1651	0.765	0.781	0.871	0.828	0.606	0.505	0.56	0.643	0.386	0.331	0.385	0.329	0.337	0.59	0.478	0.397	0.41
NCI-H1666	0.871	0.842	0.811	0.593	0.998	0.931	1.03	0.959	0.536	0.579	0.586	0.596	0.566	0.405	0.425	0.39	0.145

Cell Line	relative viability (AT-7519 + Trametinib; first compound 0.01 µM)	relative viability (AT-7519 + Trametinib; first compound 0.03162 µM)	relative viability (AT-7519 + Trametinib; first compound 0.3162 µM)	relative viability (AT-7519 + Trametinib; first compound 1 µM)	relative viability (AT-7519 + Vorinostat; first compound 0.01 µM)	relative viability (AT-7519 + Vorinostat; first compound 0.03162 µM)	relative viability (AT-7519 + Vorinostat; first compound 0.3162 µM)	relative viability (AT-7519 + Vorinostat; first compound 1 µM)	relative viability ([1]; first compound 0.08 µM)	relative viability ([1]; first compound 0.253 µM)	relative viability ([1]; first compound 0.8 µM)	relative viability ([1]; first compound 2.53 µM)	relative viability ([1]; first compound 8 µM)	relative viability (AT-7519 + Pictilisib; first compound 0.01 µM)	relative viability (AT-7519 + Pictilisib; first compound 0.03162 µM)	relative viability (AT-7519 + Pictilisib; first compound 0.3162 µM)	relative viability (AT-7519 + Pictilisib; first compound 1 µM)
NCI-H1734	0.644	0.629	0.618	0.31	0.723	0.831	0.739	0.535	0.398	0.381	0.356	0.326	0.35	0.552	0.452	0.439	0.252
NCI-H1755	0.834	0.768	0.787	0.469	0.769	0.693	0.839	0.814	0.597	0.59	0.605	0.63	0.651	0.444	0.379	0.346	0.297
NCI-H1793	0.492	0.489	0.433	0.218	0.514	0.849	0.615	0.767	0.416	0.416	0.346	0.442	0.379	0.357	0.255	0.31	0.161
NCI-H1915	0.58	0.304	0.316	0.118	0.537	0.558	0.588	0.546	0.368	0.381	0.352	0.357	0.37	0.987	0.943	0.755	0.417
NCI-H1944	0.423	0.481	0.362	0.302	0.547	0.528	0.534	0.436	0.237	0.199	0.19	0.199	0.193	0.356	0.334	0.323	0.339
NCI-H1975	0.339	0.311	0.342	0.165	0.805	0.679	0.624	0.27	0.424	0.434	0.413	0.386	0.39	0.293	0.253	0.231	0.146
NCI-H1993	0.445	0.496	0.474	0.453	0.629	0.605	0.82	0.539	0.492	0.488	0.537	0.528	0.527	0.783	0.76	0.929	0.606
NCI-H2009	0.306	0.287	0.25	0.181	0.782	0.725	0.81	0.746	0.498	0.455	0.504	0.498	0.441	0.914	0.763	0.654	0.247
NCI-H2023	0.541	0.566	0.437	0.131	0.759	0.503	0.46	0.269	0.393	0.394	0.432	0.376	0.379	0.25	0.24	0.207	0.172
NCI-H2085	0.468	0.585	0.595	0.367	0.783	0.78	0.74	0.929	0.795	0.743	0.687	0.752	0.755	0.44	0.506	0.553	0.382
NCI-H2087	0.241	0.187	0.135	0.119	1.01	0.632	0.607	0.206	0.469	0.447	0.452	0.455	0.459	1.02	0.882	0.593	0.173
NCI-H2126	0.583	0.594	0.554	0.44	0.79	0.731	0.646	0.668	0.564	0.535	0.514	0.557	0.559	0.571	0.516	0.464	0.433
NCI-H2170	0.994	0.868	0.91	0.708	0.718	0.867	0.869	0.736	0.46	0.404	0.417	0.424	0.391	0.305	0.29	0.234	0.255
NCI-H2228	0.441	0.426	0.421	0.247	0.406	0.671	0.572	0.517	0.441	0.341	0.296	0.303	0.423	0.357	0.371	0.473	0.149
NCI-H2347	0.263	0.256	0.274	0.254	0.463	0.527	0.637	0.379	0.356	0.318	0.438	0.558	0.303	0.565	0.665	0.345	0.286
NCI-H2405	0.664	0.643	0.61	0.299	1.08	0.988	0.954	0.852	0.382	0.384	0.371	0.342	0.362	0.461	0.424	0.438	0.293
NCI-H3122	0.255	0.213	0.225	0.148	1.06	1.07	1.04	0.757	0.369	0.379	0.378	0.418	0.323	0.625	0.603	0.645	0.102
PC-3 [JPC-3]	0.715	0.667	0.767	0.53	0.667	0.773	0.884	1.17	0.474	0.473	0.477	0.478	0.494	0.779	0.751	0.688	0.694
